Values quoted from earlier work in patent US12605432B2, “Combinations for antigen based therapy” (Diamyd Medical AB, priority 2014, dated 2026).
Like-named read-outs stand apart in the source and are kept apart here.

What was measured:
[1] = test system: mouse islet allografts; autoimmune diabetes
DCs = conditions: decreased CD40, CD80, CD86, low IL-12, enhanced IL-10 secretion
[2] = test system: B cells, dendritic cells and T cells
T1D in NOD mice = conditions: mouse, in vivo
[3] = test system: residual insulin secretion in T1D patients; conditions: in vivo
[4] = test system: blood glucose (BG) concentrations in patients; conditions: diabetic and nondiabetic patients in general clinical practice

**Q.** With `C=C1/C(=C\C=C2/CCC[C@]3(C)[C@@H]([C@H](C)CCCC(C)(C)O)CC[C@@H]23)C[C@@H](O)C[C@@H]1O` [1,25-Dihydroxyvitamin D(3)] as the compound, how does the “tolerance to islet allografts” value ([1]; mouse) read?
**A.** Its value is “induced tolerance to mouse islet allografts”.

**Q.** And the diabetes development ([1]; non-hypercalcemic doses)?
**A.** The diabetes development was “inhibited diabetes development”.

**Q.** What about the DC phenotype (DCs) of the same compound?
**A.** Its DC phenotype is “induces DCs with a tolerogenic phenotype”.

**Q.** And the “expression of IL-10 by dendritic cells and T cells” value [2]?
**A.** Its value is “enhances”.

**Q.** What about the “expression of IgE by B cells” value [2] of the same compound?
**A.** The value was “inhibits”.

**Q.** Which “effect on T1D in NOD mice” value (T1D in NOD mice) does the source give for `FC(F)(F)c1ccc(CNc2ccc(Cc3c[nH]c4ncccc34)cn2)cc1` [PLX647] here?
**A.** The value was “only marginal efficacy”.

**Q.** Which “effect of protective agents” value [3] does the source give for `CC1=NS(=O)(=O)c2cc(Cl)ccc2N1` [diazoxide] here?
**A.** The value was “no or transient effect”.

**Q.** Which “expression level of total MHC molecules and co-stimulatory molecules on DCs” value (dendritic cells (DCs)) does the source give for `CC(C)Cc1ccc(C(C)C(=O)O)cc1` (stereo not shown) [ibuprofen] here?
**A.** The value was “increased”.

**Q.** And the “phagocytic activity of DCs” value (dendritic cells (DCs))?
**A.** Its value is “did not inhibit”.

**Q.** What about the “MHC class I and class II-restricted presentation of antigen” value (dendritic cells (DCs); dendritic cells) of the same compound?
**A.** The value was “inhibit MHC class I and class II-restricted presentation of antigen”.

**Q.** What does the source list for `Cc1ccc(NC(=O)c2ccc(CN3CCN(C)CC3)cc2)cc1Nc1nccc(-c2cccnc2)n1` [imatinib]?
**A.** effect on T1D in NOD mice (T1D in NOD mice): prevented and reversed T1D; IL-10 secretion (macrophage cultures): induced secretion of anti-inflammatory IL-10

**Q.** For `NC(=O)c1cccnc1` [nicotinamide], which “effect of protective agents” value [3] is on record?
**A.** Its value is “no or transient effect”.

**Q.** Which “blood glucose (BG)” value [4] does the source give for `CNC(=O)c1cc(Oc2ccc(NC(=O)Nc3ccc(Cl)c(C(F)(F)F)c3)cc2)ccn1` [sorafenib] here?
**A.** The value was “significant declines in BG”.

**Q.** What does the source list for Insulin: β cell specific auto-antigen?
**A.** prevention of diabetes (high risk individuals; oral administration): may have a slight effect; prevention of diabetes (high risk individuals; parenteral administration (DPT)): no effect
